Laboratory results: the kinase profiling compilation of Christmann-Franck et al. (2016)

Columns and labels:
Test in all cases: KINOMEscan competition binding
Settings in all cases: compound 10.0 µM
[1] = system: ABL1 (human), P00519 [M351T]
ABL2 (human) = ABL2 (human) (UniProt P42684)
AKT2 (human) = AKT2 (human) (UniProt P31751)
ALK (human) = ALK (human) (UniProt Q9UM73)
AURKC (human) = AURKC (human) (UniProt Q9UQB9)
CAMK2G (human) = CAMK2G (human) (UniProt Q13555)
CDK18 (human) = CDK18 (human) (UniProt Q07002)
CIT (human) = CIT (human) (UniProt O14578)
CLK1 (human) = CLK1 (human) (UniProt P49759)
CLK3 (human) = CLK3 (human) (UniProt P49761)
CSF1R (human) = CSF1R (human) (UniProt P07333)
DCLK2 (human) = DCLK2 (human) (UniProt Q8N568)
EPHA8 (human) = EPHA8 (human) (UniProt P29322)
EPHB3 (human) = EPHB3 (human) (UniProt P54753)
[2] = system: FLT3 (human), P36888 [N841I]
FRK (human) = FRK (human) (UniProt P42685)
HIPK1 (human) = HIPK1 (human) (UniProt Q86Z02)
INSR (human) = INSR (human) (UniProt P06213)
[3] = target: JAK3 JH1 catalytic (human) (UniProt P52333)
MAP3K5 (human) = MAP3K5 (human) (UniProt Q99683)
MAPK4 (human) = MAPK4 (human) (UniProt P31152)
MARK2 (human) = MARK2 (human) (UniProt Q7KZI7)
MUSK (human) = MUSK (human) (UniProt O15146)
MYO3A (human) = MYO3A (human) (UniProt Q8NEV4)
NEK1 (human) = NEK1 (human) (UniProt Q96PY6)
NTRK1 (human) = NTRK1 (human) (UniProt P04629)
PRKCQ (human) = PRKCQ (human) (UniProt Q04759)
RAF1 (human) = RAF1 (human) (UniProt P04049)
RIOK3 (human) = RIOK3 (human) (UniProt O14730)
RIPK1 (human) = RIPK1 (human) (UniProt Q13546)
RIPK4 (human) = RIPK4 (human) (UniProt P57078)
RPS6KA6 KD2 (human) = RPS6KA6 KD2 (human) (UniProt Q9UK32)
SIK2 (human) = SIK2 (human) (UniProt Q9H0K1)
SLK (human) = SLK (human) (UniProt Q9H2G2)
STK10 (human) = STK10 (human) (UniProt O94804)
STK35 (human) = STK35 (human) (UniProt Q8TDR2)
STK38L (human) = STK38L (human) (UniProt Q9Y2H1)
TLK1 (human) = TLK1 (human) (UniProt Q9UKI8)
TYRO3 (human) = TYRO3 (human) (UniProt Q06418)
WEE1 (human) = WEE1 (human) (UniProt P30291)

Chain of SLK (human) (Q9H2G2 whole entry, looked up): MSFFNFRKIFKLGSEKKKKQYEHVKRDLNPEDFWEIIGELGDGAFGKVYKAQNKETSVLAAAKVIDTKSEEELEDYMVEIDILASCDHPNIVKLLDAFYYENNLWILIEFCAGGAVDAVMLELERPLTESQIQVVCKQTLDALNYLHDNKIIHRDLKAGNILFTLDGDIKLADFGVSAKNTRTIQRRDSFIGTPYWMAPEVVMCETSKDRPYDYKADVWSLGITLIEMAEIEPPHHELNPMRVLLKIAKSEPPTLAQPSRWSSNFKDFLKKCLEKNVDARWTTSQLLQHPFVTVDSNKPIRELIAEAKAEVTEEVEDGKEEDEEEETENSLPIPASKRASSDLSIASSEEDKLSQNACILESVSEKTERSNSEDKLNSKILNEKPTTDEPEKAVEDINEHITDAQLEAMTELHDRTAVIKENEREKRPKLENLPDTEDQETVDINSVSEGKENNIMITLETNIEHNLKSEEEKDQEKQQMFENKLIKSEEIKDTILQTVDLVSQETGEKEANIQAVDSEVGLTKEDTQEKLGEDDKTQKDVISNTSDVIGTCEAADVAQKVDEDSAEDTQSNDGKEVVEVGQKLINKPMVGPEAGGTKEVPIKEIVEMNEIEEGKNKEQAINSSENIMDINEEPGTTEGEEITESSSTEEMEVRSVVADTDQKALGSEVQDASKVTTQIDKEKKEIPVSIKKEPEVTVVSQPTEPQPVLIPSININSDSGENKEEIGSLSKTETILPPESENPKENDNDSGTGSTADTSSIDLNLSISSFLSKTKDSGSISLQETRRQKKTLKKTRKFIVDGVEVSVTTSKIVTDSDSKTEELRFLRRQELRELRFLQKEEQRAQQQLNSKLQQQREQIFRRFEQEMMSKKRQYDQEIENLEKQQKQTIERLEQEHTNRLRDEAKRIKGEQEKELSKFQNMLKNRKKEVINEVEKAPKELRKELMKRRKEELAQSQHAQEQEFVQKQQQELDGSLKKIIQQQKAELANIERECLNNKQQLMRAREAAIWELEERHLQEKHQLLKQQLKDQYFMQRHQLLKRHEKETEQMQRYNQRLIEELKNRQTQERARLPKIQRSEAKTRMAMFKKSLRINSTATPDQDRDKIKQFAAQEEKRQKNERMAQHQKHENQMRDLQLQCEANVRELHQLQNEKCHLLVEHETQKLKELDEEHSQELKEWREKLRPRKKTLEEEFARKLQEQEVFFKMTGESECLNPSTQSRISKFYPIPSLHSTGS
Chain of JAK3 JH1 catalytic (human) (P52333 whole entry, looked up): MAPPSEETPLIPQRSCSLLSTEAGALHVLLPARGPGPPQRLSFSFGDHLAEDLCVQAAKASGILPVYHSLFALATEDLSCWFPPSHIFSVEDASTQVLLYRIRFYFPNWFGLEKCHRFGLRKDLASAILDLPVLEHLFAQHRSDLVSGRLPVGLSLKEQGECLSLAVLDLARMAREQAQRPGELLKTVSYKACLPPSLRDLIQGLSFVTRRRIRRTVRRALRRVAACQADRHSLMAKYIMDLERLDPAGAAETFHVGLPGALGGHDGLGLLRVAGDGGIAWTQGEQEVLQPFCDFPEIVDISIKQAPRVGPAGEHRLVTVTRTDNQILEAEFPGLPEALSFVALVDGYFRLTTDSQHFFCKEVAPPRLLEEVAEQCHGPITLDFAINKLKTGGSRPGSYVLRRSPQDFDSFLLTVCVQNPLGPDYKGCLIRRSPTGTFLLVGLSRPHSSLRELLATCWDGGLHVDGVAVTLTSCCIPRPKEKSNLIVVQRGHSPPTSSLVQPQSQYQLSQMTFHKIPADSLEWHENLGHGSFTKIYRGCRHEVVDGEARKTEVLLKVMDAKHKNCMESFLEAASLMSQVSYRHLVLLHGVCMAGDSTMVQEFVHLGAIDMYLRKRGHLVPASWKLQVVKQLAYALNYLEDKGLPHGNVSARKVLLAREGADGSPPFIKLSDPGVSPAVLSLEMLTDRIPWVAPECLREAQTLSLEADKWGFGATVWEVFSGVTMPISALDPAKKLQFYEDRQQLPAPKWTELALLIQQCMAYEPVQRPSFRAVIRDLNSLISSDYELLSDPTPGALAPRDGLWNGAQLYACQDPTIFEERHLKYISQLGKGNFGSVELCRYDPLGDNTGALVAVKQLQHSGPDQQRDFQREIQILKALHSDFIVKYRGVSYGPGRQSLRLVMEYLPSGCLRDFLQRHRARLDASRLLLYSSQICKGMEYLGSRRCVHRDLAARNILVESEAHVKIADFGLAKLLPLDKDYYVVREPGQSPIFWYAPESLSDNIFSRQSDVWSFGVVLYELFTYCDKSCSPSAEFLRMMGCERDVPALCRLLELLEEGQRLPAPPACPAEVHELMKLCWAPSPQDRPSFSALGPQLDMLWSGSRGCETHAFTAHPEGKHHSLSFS
Chain of EPHB3 (human) (P54753 whole entry, looked up): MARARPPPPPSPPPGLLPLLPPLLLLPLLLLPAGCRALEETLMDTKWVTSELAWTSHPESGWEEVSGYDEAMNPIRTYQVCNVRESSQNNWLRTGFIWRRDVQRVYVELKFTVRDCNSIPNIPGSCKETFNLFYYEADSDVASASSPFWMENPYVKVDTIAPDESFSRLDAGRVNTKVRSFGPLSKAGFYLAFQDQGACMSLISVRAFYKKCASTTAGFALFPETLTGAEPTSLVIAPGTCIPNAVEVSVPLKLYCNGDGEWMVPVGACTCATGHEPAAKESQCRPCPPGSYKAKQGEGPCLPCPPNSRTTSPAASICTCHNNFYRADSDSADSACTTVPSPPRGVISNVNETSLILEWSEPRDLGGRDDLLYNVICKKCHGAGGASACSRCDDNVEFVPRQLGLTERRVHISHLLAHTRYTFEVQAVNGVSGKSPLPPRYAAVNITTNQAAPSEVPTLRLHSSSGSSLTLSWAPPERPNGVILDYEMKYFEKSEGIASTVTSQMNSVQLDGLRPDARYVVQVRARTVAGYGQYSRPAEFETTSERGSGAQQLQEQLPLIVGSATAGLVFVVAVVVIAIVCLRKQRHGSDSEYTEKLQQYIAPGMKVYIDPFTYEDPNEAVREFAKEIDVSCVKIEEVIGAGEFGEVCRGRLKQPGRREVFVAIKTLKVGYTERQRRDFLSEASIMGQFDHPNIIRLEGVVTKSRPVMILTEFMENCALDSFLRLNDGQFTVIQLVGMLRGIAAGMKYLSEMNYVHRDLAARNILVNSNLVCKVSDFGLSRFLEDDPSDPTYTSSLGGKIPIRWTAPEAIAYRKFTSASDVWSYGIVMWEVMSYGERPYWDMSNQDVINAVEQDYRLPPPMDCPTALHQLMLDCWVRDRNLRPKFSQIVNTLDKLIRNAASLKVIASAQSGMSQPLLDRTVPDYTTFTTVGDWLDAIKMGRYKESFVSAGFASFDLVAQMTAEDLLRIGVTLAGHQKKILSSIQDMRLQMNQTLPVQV
Chain of STK38L (human) (Q9Y2H1 whole entry, looked up): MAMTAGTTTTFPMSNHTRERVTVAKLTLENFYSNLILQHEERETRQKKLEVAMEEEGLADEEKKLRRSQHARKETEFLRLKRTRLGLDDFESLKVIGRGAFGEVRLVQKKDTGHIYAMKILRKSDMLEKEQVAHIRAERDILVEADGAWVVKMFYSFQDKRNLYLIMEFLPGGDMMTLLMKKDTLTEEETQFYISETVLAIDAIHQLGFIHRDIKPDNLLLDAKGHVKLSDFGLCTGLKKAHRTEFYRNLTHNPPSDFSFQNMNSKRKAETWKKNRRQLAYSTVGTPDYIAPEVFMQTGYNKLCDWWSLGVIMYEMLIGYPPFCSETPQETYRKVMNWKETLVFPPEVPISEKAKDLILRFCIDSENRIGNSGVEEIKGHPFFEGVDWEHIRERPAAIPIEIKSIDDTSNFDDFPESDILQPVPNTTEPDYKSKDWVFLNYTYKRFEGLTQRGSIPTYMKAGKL
Chain of RIPK1 (human) (Q13546 whole entry, looked up): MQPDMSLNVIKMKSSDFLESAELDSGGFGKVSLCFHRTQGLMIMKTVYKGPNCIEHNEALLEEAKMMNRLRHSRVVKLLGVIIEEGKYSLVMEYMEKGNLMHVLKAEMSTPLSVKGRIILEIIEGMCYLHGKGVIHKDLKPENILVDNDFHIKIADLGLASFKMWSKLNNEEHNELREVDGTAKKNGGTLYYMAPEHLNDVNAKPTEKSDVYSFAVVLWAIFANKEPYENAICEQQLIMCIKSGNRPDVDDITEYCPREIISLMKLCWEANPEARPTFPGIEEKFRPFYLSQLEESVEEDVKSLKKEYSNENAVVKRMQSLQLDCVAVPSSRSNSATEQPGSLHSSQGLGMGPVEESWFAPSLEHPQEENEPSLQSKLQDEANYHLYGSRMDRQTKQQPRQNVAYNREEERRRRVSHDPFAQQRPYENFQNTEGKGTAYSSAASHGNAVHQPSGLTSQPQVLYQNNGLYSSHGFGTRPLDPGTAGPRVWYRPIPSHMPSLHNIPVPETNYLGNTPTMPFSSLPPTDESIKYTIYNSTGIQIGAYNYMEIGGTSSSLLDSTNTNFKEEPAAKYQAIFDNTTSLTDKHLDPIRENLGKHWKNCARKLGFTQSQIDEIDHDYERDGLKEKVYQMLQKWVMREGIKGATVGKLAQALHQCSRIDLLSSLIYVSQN
Chain of CDK18 (human) (Q07002 whole entry, looked up): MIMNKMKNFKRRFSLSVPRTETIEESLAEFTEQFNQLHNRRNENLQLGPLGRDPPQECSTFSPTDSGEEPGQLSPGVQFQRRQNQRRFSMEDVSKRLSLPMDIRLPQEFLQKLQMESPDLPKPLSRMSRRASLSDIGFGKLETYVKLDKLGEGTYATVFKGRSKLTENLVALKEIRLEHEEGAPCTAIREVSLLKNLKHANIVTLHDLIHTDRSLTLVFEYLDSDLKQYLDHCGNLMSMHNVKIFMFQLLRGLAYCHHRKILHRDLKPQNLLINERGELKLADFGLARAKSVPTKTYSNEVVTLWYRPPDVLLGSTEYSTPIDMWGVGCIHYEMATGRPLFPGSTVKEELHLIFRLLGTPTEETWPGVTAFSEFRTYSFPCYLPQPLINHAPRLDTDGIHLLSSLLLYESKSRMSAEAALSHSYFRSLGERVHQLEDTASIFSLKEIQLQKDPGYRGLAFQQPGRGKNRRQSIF

kinase still bound, per cent of control [1]	kinase still bound, per cent of control (ABL2 (human))	kinase still bound, per cent of control (AKT2 (human))	kinase still bound, per cent of control (ALK (human))	kinase still bound, per cent of control (AURKC (human))	kinase still bound, per cent of control (CAMK2G (human))	kinase still bound, per cent of control (CDK18 (human))	kinase still bound, per cent of control (CIT (human))	kinase still bound, per cent of control (CLK1 (human))	kinase still bound, per cent of control (CLK3 (human))	kinase still bound, per cent of control (CSF1R (human))	kinase still bound, per cent of control (DCLK2 (human))	kinase still bound, per cent of control (EPHA8 (human))	kinase still bound, per cent of control (EPHB3 (human))	kinase still bound, per cent of control [2]	kinase still bound, per cent of control (FRK (human))	kinase still bound, per cent of control (HIPK1 (human))	kinase still bound, per cent of control (INSR (human))	kinase still bound, per cent of control [3]	kinase still bound, per cent of control (MAP3K5 (human))	Structure (SMILES)	also measured
27%	21%	100%	100%	100%	100%	100%	100%	100%	100%	1.4%	100%	0.35%	3.3%	100%	1.3%	100%	100%	100%	100%	Cc1ccc(C(=O)Nc2cccc(C(F)(F)F)c2)cc1Nc1cncc(C(N)=O)c1	kinase still bound, per cent of control (MAPK4 (human)): 100%; kinase still bound, per cent of control (MARK2 (human)): 100%; kinase still bound, per cent of control (MUSK (human)): 100%; kinase still bound, per cent of control (MYO3A (human)): 100%; kinase still bound, per cent of control (NEK1 (human)): 100%; kinase still bound, per cent of control (NTRK1 (human)): 100%; kinase still bound, per cent of control (PRKCQ (human)): 100%; kinase still bound, per cent of control (RAF1 (human)): 4.5%; kinase still bound, per cent of control (RIOK3 (human)): 100%; kinase still bound, per cent of control (RIPK1 (human)): 100%; kinase still bound, per cent of control (RIPK4 (human)): 100%; kinase still bound, per cent of control (RPS6KA6 KD2 (human)): 100%; kinase still bound, per cent of control (SIK2 (human)): 100%; kinase still bound, per cent of control (SLK (human)): 100%; kinase still bound, per cent of control (STK10 (human)): 100%; kinase still bound, per cent of control (STK35 (human)): 100%; kinase still bound, per cent of control (STK38L (human)): 100%; kinase still bound, per cent of control (TLK1 (human)): 100%; kinase still bound, per cent of control (TYRO3 (human)): 100%; kinase still bound, per cent of control (WEE1 (human)): 100%
100%	100%	100%	0.7%	4.5%	100%	100%	100%	13%	100%	14%	0.45%	100%	100%	0.25%	28%	100%	17%	0.4%	100%	C=CC(=O)Nc1cccc(Oc2nc(Nc3ccc(N4CCN(C)CC4)cc3OC)ncc2Cl)c1	kinase still bound, per cent of control (MAPK4 (human)): 100%; kinase still bound, per cent of control (MARK2 (human)): 100%; kinase still bound, per cent of control (MUSK (human)): 100%; kinase still bound, per cent of control (MYO3A (human)): 28%; kinase still bound, per cent of control (NEK1 (human)): 100%; kinase still bound, per cent of control (NTRK1 (human)): 100%; kinase still bound, per cent of control (PRKCQ (human)): 100%; kinase still bound, per cent of control (RAF1 (human)): 100%; kinase still bound, per cent of control (RIOK3 (human)): 20%; kinase still bound, per cent of control (RIPK1 (human)): 9.4%; kinase still bound, per cent of control (RIPK4 (human)): 100%; kinase still bound, per cent of control (RPS6KA6 KD2 (human)): 27%; kinase still bound, per cent of control (SIK2 (human)): 20%; kinase still bound, per cent of control (SLK (human)): 100%; kinase still bound, per cent of control (STK10 (human)): 100%; kinase still bound, per cent of control (STK35 (human)): 100%; kinase still bound, per cent of control (STK38L (human)): 100%; kinase still bound, per cent of control (TLK1 (human)): 100%; kinase still bound, per cent of control (TYRO3 (human)): 100%; kinase still bound, per cent of control (WEE1 (human)): 100%
